Laboratory results: ChEMBL document CHEMBL4837239, “Identification of Thieno[3,2-d]pyrimidine Derivatives as Dual Inhibitors of Focal Adhesion Kinase and FMS-like Tyrosine Kinase 3” (J Med Chem, 2021)
Calls of active or inactive are those of the source. No cut-off for these calls is given here.

What was measured:
CYP3A4 = CYP3A4 (Homo sapiens, UniProt P08684); experiment: Inhibition of CYP3A4 (unknown origin) at 10 uM relative to control; type: ADME
Focal adhesion kinase 1 = Focal adhesion kinase 1 (Homo sapiens, UniProt Q05397); experiment: Inhibition of recombinant FAK (unknown origin) by radiometric kinase assay
[1] = Inhibition of FLT3 D835Y (unknown origin); set-up: species or system Homo sapiens
BaF3 [2] = experiment: Antiproliferative activity against mouse Ba/F3 cells harbouring FLT3 ITD F691L mutant assessed as growth inhibition measured after 72 hrs by CellTiter-Glo assay; type: functional
CYP2D6 = CYP2D6 (Homo sapiens, UniProt P10635); experiment: Inhibition of CYP2D6 (unknown origin) at 10 uM relative to control; type: ADME
MDA-MB-231 = experiment: Antiproliferative activity against human MDA-MB-231 cells assessed as growth inhibition measured after 72 hrs by CellTiter-Glo assay; type: functional
CYP2C19 = CYP2C19 (Homo sapiens, UniProt P33261); experiment: Inhibition of CYP2C19 (unknown origin) at 10 uM relative to control; type: ADME
BaF3 [3] = experiment: Antiproliferative activity against mouse Ba/F3 cells harbouring FLT3 ITD mutant assessed as growth inhibition measured after 72 hrs by CellTiter-Glo assay; type: functional
BaF3 [4] = experiment: Antiproliferative activity against mouse Ba/F3 cells harbouring FLT3 ITD D835Y mutant assessed as growth inhibition measured after 72 hrs by CellTiter-Glo assay; type: functional
[5] = (§1) Antiproliferative activity against human A375P cells assessed as growth inhibition measured after 72 hrs by CellTiter-Glo assay; type: functional
CYP1A2 = target: T1, CYP1A2 (Homo sapiens, UniProt P05177); experiment: Inhibition of CYP1A2 (unknown origin) at 10 uM relative to control; type: ADME
T1 sequence (P05177 whole entry): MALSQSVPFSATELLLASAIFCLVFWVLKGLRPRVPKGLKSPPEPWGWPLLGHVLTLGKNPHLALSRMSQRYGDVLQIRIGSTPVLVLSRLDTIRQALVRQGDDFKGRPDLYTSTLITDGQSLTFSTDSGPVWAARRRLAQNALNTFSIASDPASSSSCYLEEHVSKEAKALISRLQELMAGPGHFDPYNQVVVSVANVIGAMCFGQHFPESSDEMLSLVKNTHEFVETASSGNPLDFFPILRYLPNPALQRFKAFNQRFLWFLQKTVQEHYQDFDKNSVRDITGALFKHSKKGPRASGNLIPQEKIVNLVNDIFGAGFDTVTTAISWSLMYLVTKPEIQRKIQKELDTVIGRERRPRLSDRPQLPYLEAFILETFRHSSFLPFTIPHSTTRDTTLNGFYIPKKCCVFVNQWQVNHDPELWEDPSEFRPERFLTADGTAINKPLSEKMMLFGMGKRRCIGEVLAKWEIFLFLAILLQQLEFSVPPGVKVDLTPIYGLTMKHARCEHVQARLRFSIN

CYP2C9 = CYP2C9 (Homo sapiens, UniProt P11712); experiment: Inhibition of CYP2C9 (unknown origin) at 10 uM relative to control; type: ADME
[6] = Metabolic stability in human liver microsomes assessed as compound remaining at 1 uM measured after 1 hr; type: ADME, Microsome; conditions: read-out: Stabilty
BaF3 [7] = experiment: Antiproliferative activity against mouse Ba/F3 cells assessed as growth inhibition measured after 72 hrs by CellTiter-Glo assay; type: functional
HCT-116 = experiment: Antiproliferative activity against human HCT-116 cells assessed as growth inhibition measured after 72 hrs by CellTiter-Glo assay; type: functional
BaF3 [8] = experiment: Antiproliferative activity against mouse Ba/F3 cells harbouring FLT3 D835Y mutant assessed as growth inhibition measured after 72 hrs by CellTiter-Glo assay; type: functional
BaF3 [9] = experiment: Antiproliferative activity against mouse Ba/F3 cells harbouring FLT3 ITD F691I mutant assessed as growth inhibition measured after 72 hrs by CellTiter-Glo assay; type: functional
A375P = experiment: as §1; type: functional
[10] = Inhibition of FYK Y379 mutant phosphorylation in human MDA-MB-231 cells by in-cell western blot assay; type: cell-based

Sequence of CYP2C19 (P33261 whole entry): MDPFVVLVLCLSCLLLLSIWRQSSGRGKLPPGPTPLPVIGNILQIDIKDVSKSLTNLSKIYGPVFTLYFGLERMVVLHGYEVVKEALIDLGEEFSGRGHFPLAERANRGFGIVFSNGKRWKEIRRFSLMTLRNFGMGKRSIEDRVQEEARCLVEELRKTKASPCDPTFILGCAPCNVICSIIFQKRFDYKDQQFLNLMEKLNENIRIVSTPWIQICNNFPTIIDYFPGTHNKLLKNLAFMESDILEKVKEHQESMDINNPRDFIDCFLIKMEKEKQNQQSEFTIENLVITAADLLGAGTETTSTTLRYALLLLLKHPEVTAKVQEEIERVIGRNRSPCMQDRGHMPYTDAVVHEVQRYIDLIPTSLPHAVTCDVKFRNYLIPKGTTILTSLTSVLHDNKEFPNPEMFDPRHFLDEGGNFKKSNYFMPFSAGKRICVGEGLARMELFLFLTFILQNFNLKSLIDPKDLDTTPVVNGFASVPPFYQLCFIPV
Sequence of CYP3A4 (P08684 whole entry): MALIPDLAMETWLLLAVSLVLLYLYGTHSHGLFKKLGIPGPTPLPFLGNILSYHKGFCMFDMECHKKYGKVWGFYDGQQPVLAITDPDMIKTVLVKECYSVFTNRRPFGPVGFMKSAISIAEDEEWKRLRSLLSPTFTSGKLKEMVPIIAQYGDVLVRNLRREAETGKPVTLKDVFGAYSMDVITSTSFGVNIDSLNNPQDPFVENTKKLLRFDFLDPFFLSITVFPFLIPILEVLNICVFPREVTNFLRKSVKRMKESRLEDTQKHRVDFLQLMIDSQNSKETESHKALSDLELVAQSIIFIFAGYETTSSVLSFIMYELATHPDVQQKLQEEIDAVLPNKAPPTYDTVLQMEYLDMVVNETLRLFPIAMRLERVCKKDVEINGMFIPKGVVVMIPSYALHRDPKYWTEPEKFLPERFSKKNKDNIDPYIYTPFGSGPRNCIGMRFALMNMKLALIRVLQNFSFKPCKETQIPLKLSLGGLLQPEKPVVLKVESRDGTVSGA
Sequence of Focal adhesion kinase 1 (Q05397 whole entry): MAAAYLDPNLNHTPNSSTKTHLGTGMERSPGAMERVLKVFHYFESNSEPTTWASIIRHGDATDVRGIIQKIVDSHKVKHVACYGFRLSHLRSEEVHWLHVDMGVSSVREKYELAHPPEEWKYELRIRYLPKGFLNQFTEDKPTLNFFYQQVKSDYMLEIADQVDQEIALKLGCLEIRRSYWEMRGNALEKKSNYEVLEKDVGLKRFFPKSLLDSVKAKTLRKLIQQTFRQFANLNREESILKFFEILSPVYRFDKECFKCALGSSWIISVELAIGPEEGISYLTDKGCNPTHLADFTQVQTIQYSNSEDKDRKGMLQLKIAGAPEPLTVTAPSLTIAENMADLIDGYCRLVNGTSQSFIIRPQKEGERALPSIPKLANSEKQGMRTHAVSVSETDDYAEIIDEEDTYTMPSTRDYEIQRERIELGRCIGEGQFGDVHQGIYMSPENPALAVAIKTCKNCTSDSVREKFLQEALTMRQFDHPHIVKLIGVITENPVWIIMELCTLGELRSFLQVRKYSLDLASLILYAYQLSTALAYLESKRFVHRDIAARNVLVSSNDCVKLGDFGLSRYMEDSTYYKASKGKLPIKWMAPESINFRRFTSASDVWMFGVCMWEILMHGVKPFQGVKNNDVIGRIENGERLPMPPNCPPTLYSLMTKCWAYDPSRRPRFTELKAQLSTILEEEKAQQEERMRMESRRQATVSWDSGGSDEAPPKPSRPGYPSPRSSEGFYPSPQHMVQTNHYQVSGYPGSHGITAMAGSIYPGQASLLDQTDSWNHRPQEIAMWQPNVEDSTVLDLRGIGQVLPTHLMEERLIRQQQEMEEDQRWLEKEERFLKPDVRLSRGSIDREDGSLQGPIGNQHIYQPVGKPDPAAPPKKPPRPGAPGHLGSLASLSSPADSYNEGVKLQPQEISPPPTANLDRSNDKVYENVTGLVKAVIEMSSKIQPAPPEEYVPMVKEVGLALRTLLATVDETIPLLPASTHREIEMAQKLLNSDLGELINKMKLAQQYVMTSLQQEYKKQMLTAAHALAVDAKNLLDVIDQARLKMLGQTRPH
Sequence of CYP2D6 (P10635 whole entry): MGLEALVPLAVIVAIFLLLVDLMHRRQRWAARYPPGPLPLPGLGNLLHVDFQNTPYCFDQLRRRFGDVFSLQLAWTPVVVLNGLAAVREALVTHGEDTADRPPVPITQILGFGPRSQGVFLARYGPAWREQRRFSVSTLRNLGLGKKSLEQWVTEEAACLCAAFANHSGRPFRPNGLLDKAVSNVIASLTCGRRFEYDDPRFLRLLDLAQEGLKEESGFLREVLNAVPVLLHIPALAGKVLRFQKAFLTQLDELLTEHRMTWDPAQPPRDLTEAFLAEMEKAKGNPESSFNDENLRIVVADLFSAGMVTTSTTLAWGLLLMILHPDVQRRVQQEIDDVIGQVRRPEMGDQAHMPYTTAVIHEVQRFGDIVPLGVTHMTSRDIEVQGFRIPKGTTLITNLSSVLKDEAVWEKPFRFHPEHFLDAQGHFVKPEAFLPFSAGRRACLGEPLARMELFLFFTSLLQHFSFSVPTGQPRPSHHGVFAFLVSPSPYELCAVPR
Sequence of CYP2C9 (P11712 whole entry): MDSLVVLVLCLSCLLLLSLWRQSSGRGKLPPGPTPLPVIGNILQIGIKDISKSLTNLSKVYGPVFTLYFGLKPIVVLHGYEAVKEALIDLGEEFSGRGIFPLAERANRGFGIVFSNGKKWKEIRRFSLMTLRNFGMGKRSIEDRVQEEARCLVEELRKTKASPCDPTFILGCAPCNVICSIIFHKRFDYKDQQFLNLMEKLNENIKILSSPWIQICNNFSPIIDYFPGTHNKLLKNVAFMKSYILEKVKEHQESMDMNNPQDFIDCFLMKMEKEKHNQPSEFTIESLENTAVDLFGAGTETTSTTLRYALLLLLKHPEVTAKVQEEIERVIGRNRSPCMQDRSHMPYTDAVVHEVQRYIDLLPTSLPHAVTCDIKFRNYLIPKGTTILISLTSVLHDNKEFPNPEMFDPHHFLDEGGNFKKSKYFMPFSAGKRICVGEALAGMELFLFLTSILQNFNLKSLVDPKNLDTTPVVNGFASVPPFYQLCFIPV

Row | inhibition at 10 µM (CYP3A4) | IC50 (Focal adhesion kinase 1) | IC50 [1] | GI50 (BaF3 [2]; Mus musculus, BaF3) | inhibition at 10 µM (CYP2D6) | GI50 (MDA-MB-231; Homo sapiens, MDA-MB-231) | inhibition at 10 µM (CYP2C19) | GI50 (BaF3 [3]; Mus musculus, BaF3) | GI50 (BaF3 [4]; Mus musculus, BaF3) | inhibition at 10 µM (CYP1A2) | inhibition at 10 µM (CYP2C9) | remaining at 1 h, 1 µM [6] | GI50 (BaF3 [7]; Mus musculus, BaF3) | GI50 (HCT-116; Homo sapiens, HCT-116) | GI50 (BaF3 [8]; Mus musculus, BaF3) | GI50 (BaF3 [9]; Mus musculus, BaF3) | SMILES | GI50 ([5]; Homo sapiens, A375P) | also measured
1 | 55.1% | 21 nM | < 0.5 nM | 136 nM | 100% | 260 nM | 82.9% | 23.4 nM | 20.5 nM | 44.8% | 100% | 73.1% | 511 nM | 110 nM | 4 nM | 234 nM | CCN1CCN(c2ccc(Nc3ncc4scc(-c5cccc([N+](=O)[O-])c5)c4n3)cc2)CC1 | 500 nM | –
2 | 81% | 10 nM | < 0.5 nM | 67.5 nM | 84.1% | 630 nM | 96.5% | 10.8 nM | 153 nM | 30.9% | 92.1% | 92.6% | 174 nM | 1140 nM | 2.2 nM | 192 nM | CCN1CCN(c2ccc(Nc3ncc4scc(-c5ccccc5)c4n3)cc2)CC1 | 400 nM | –
3 | 76% | 54 nM | < 0.5 nM | 57.7 nM | 89.4% | 570 nM | 76.5% | 20.8 nM | 32.3 nM | 67.3% | 91.7% | 89.3% | 647 nM | 170 nM | 6.2 nM | 142 nM | CCN1CCN(c2ccc(Nc3ncc4scc(-c5ccc6cc[nH]c6c5)c4n3)cc2)CC1 | 500 nM | –
4 | 72.1% | 12 nM | < 0.5 nM | 222 nM | 86.4% | 280 nM | 79.4% | 1100 nM | 90.7 nM | 35.1% | 89.3% | 83.7% | 405 nM | 240 nM | 46.5 nM | 390 nM | CCN1CCN(c2ccc(Nc3ncc4scc(-c5cccc(OC)c5)c4n3)cc2)CC1 | 510 nM | –
5 | 57.3% | 12 nM | < 0.5 nM | 103 nM | 84.7% | 460 nM | 57.5% | 7.4 nM | 11 nM | 67.5% | 63.2% | 100% | 550 nM | 250 nM | 1.6 nM | 183 nM | CS(=O)(=O)Nc1cccc(-c2csc3cnc(Nc4ccc(N5CCNCC5)cc4)nc23)c1 | 490 nM | –
6 | 59.6% | 33 nM | < 0.5 nM | 223 nM | 91.3% | 530 nM | 75.7% | 46.3 nM | 23.2 nM | 67.9% | 74.1% | 73.4% | 371 nM | 340 nM | 9.4 nM | 568 nM | CCN1CCN(c2ccc(Nc3ncc4scc(-c5cccc(N6CCCS6(=O)=O)c5)c4n3)cc2)CC1 | 410 nM | –

Further lines, the molecule ahead of its results:

Row | SMILES | inhibition at 10 µM (CYP3A4) | IC50 (Focal adhesion kinase 1) | IC50 [1] | GI50 (BaF3 [2]; Mus musculus, BaF3) | inhibition at 10 µM (CYP2D6) | GI50 (MDA-MB-231; Homo sapiens, MDA-MB-231) | inhibition at 10 µM (CYP2C19) | GI50 (BaF3 [3]; Mus musculus, BaF3) | GI50 (BaF3 [4]; Mus musculus, BaF3) | inhibition at 10 µM (CYP1A2) | inhibition at 10 µM (CYP2C9) | remaining at 1 h, 1 µM [6] | GI50 (BaF3 [7]; Mus musculus, BaF3) | GI50 (HCT-116; Homo sapiens, HCT-116) | GI50 (BaF3 [8]; Mus musculus, BaF3) | GI50 (BaF3 [9]; Mus musculus, BaF3) | GI50 ([5]; Homo sapiens, A375P) | also measured
7 | CNC(=O)c1ccccc1Nc1nc(Nc2ccc(N3CCOCC3)cc2OC)ncc1Cl | 71.2% | – | – | – | 83.2% | 1490 nM | 50.5% | – | – | 73.3% | 27% | – | – | 270 nM | – | – | 1690 nM | –
8 | CCN1CCN(c2ccc(Nc3ncc4scc(-c5ccc6ccccc6c5)c4n3)cc2)CC1 | – | 126 nM | – | – | – | 1380 nM | – | – | – | – | – | – | – | 2060 nM | – | – | – | GI50 (A375P): inactive
9 | CCOC(=O)c1ccccc1-c1csc2cnc(Nc3ccc(N4CCN(CC)CC4)cc3)nc12 | – | 1650 nM | – | – | – | 46200 nM | – | – | – | – | – | – | – | 31200 nM | – | – | – | GI50 (A375P): inactive
10 | CS(=O)(=O)Nc1cccc(-c2csc3cnc(Nc4ccc(N5CCC(O)CC5)cc4)nc23)c1 | 57.9% | 16 nM | < 0.5 nM | – | 61.5% | – | 56.5% | – | – | 34.9% | – | 54.8% | – | – | – | – | – | GI50 (BaF3 [2]): 299 nM; GI50 (MDA-MB-231): 440 nM; GI50 (BaF3 [3]): 14.5 nM; GI50 (BaF3 [4]): 14 nM; GI50 [5]: 1930 nM; GI50 (BaF3 [7]): 600 nM; GI50 (HCT-116): 520 nM; GI50 (BaF3 [8]): 23 nM; GI50 (BaF3 [9]): 587 nM
11 | COc1cc(Nc2ncc3scc(-c4cccc(NS(C)(=O)=O)c4)c3n2)cc(OC)c1OC | – | 7 nM | < 0.5 nM | – | – | – | – | – | – | – | – | 39.7% | – | – | – | – | – | GI50 (BaF3 [2]): 25.3 nM; GI50 (MDA-MB-231): 410 nM; GI50 (BaF3 [3]): 3.1 nM; GI50 (BaF3 [4]): 1.3 nM; GI50 [5]: 200 nM; GI50 (BaF3 [7]): 586 nM; GI50 (HCT-116): 430 nM; IC50 [10]: 260 nM; GI50 (BaF3 [8]): 1.3 nM; GI50 (BaF3 [9]): 325 nM
12 | CS(=O)(=O)Nc1cccc(-c2csc3cnc(NCCO)nc23)c1 | – | – | – | – | – | 57200 nM | – | – | – | – | – | – | – | 55800 nM | – | – | – | GI50 (A375P): inactive
13 | CS(=O)(=O)Nc1cccc(-c2csc3cnc(Nc4ccc(N5CCOCC5)cc4)nc23)c1 | – | 8 nM | < 0.5 nM | – | – | – | – | – | – | – | – | 79.5% | – | – | – | – | – | GI50 (BaF3 [2]): 104 nM; GI50 (MDA-MB-231): 400 nM; GI50 (BaF3 [3]): 9.5 nM; GI50 (BaF3 [4]): 10.3 nM; GI50 [5]: 1570 nM; GI50 (BaF3 [7]): 510 nM; GI50 (HCT-116): 410 nM; IC50 [10]: 260 nM; GI50 (BaF3 [8]): 1.7 nM; GI50 (BaF3 [9]): 365 nM
